Assay results: article PMC10778704, “Comparative Analysis of Cyclization Techniques in Stapled Peptides: Structural Insights into Protein–Protein Interactions in a SARS-CoV-2 Spike RBD/hACE2 Model System” (International Journal of Molecular Sciences, 2023)
Bridge positions count the residues as written; N and C are the ends. Peptide text beside a SMILES is read from it.

Legend:
[1] = reference control; cited from earlier work
[2] = Far-UV circular dichroism, calculated percent helicity in phosphate buffer; type: physicochemical; conditions: 100 µM in 10 mM sodium phosphate buffer (PBS), pH 7.4, 25 °C; calculated at 222 nm
Experimental: Figure 3 Data generated from Far-UV CD spectra for hACE2-derived peptides measured at a concentration of 100 µM in 10 mM sodium phosphate buffer at pH 7.4 and 25 °C. (A) Far-UV CD spectra of hACE2 (Asp30-Asp38)-derived linear and i, i + 4 staple peptides in molar ellipticity per residue. (B) Table listing the derivatives of 1 with a focus on the macrocyclization technique and measure-based calculated helicity (%) via CD. (C) CD spectra of hACE2 (His34-Gln42)-derived linear and i, i + 4 staple peptides in molar ellipticity per residue. (D) Table listing the derivatives of 2 with a focus on the macrocyclization technique and measure-based calculated helicity (%) via CD. HDY 1,5-Hexadiyne; BMB 1,4-Bis(bromomethyl)benzene; HFB hexafluorobenzene. ^a Predicted helicity (%) using AGADIR online software available at http://agadir.crg.es (accessed on 17 April 2023); it is only applicable to peptides consisting of natural amino acids. […]
The raw CD data (mdeg) were converted to mean residue ellipticity ( [θ] , deg·cm^2·dmol^−1·res^−1) by normalizing for peptide concentration, the number of amide bonds and path length, using Equation (2):(2) [θ]=θ/10×C×Np×l where θ is the measured ellipticity (mdeg), C is the peptide molar concentration (M), Np is the number of amino acid residues in the peptide and l is the cell path length (cm).
The maximum mean ellipticity [θ]max was calculated using Equation (3), as reported previously:(3) [θ]max=−44000+250×T×1−k/Np where T is temperature (°C) and k is the number of non-hydrogen-bonded peptide carbonyls. […]

[3] = 37 °C, comparison in words
[4] = in vitro; conditions: rat, plasma
[5] = circular dichroism; conditions: 10 mM Na phosphate; pH 7.4; 25 °C; 100 uM
[6] = molecular target: SARS-CoV-2 Spike RBD/hACE2 interactions (Severe acute respiratory syndrome coronavirus 2, UniProt P0DTC2); type: biochemical, SARS-CoV-2 / human
[7] = BeStSel analysis of Far-UV CD spectra (secondary structure content); type: physicochemical; conditions: from Far-UV CD spectra
Source text: This finding prompted us to synthesize the lactam stapled peptides 22 and 23. Similar to our observations of compound 10, we also noted a dominant conformation of 22 attributable to a regular helix1 (53.7%) and an antiparallel, right-twisted β-sheet (46.3%). Therefore, the high percentage of calculated helicity in compounds 10 and 22 can be explained on the basis of the contribution of a strong, negative absorbance band within the 217–218 nm spectral range of the Far-UV CD spectra. Such features are typical of a right-twisted β-sheet.
We were also successful at applying several cyclization strategies across the panel of hACE2 (His34-Gln42)-derived peptides. […] The associated root mean square deviation (RMSD) was 0.5. […] The distortion of the helical conformation can be partially explained by the highly polar nature of our peptide sequence (7 out of 9 amino acids) and inherent limitations in terms of the maximum helicity possible for short peptides due to C- and N-terminal distortions. […] That finding highlights the substantial influence of the initial linear sequence on staple-induced helicity.

[8] = type: physicochemical; conditions: 100 µM in 50/50 TFE/10 mM sodium phosphate buffer, pH 7.4, 25 °C

Apelin-13 (QRPRLSHKGPMPF; Apelin-13; UniProt Q9ULZ1 65-77, looked up)
In vitro half-life (t1/2), in words [1]: short in vitro half-life

Ac-NH-His-Glu-[Lys-Glu-Asp-Leu-dPra]-Tyr-Gln-CO-NH2 [compound 13]
Helicity (%) via CD [2]: 18.1%

Ac-NH-His-Glu-S5-Glu-Asp-Leu-S5-Tyr-Gln-CO-NH2 [linear 11]
Helicity (%) via CD [2]: 11.0%

Ac-NH-Asp-Lys-[Lys-Asn-His-Glu-Asp]-Glu-Asp-[Lys-Phe-Tyr-Gln-Asp]-CO-NH2 [peptide 24]
Helicity (%) via CD [2]: 25.2%

CC(=O)N[C@@H](Cc1c[nH]cn1)C(=O)N[C@@H](CCC(=O)O)C(=O)N[C@H]1CCCCNC(=O)C[C@@H](C(=O)N[C@@H](Cc2ccc(O)cc2)C(=O)N[C@@H](CCC(N)=O)C(N)=O)NC(=O)[C@H](CC(C)C)NC(=O)[C@H](CC(=O)O)NC(=O)[C@H](CCC(=O)O)NC1=O [peptide 4, Ac-NH-His-Glu-[Lys-Glu-Asp-Leu-Asp]-Tyr-Gln-CO-NH2] (Ac-HEKEDLDYQ-NH2; lactam 3-7)
Degradation / stability in rat plasma over 24 h [3]: significantly more stable | half-life [4]: 300 min | helicity [5]: 55.5% | Luminescence signal (RLUs), disruption of SmBiT-ACE2 + LgBiT-RBD [6]: reduced the luminescence signal | Distorted helix2 with BeStSel [7]: 18.3% | Helical content (α-helical character) with BeStSel [7]: 37.0% | Regular helix1 with BeStSel [7]: 18.7% | Helicity in 50%TFE (%) [8]: 49.4%
